Measured values from patent US7834164B2 (priority 2006, dated 2010).
Bridge positions count the residues as written; N and C are the ends. Square brackets hold non-standard residues; d marks the D form. Peptide text beside a SMILES is read from it. 1Nal = N[C@@H](Cc1cccc2ccccc12)C(=O)O

How the values were obtained:
[1] = biological target: T1, human Kv1.1 (Homo sapiens, UniProt Q09470); assay type: cell-based; conditions: read-out: Kv1.1 Analogue Activity (IC50)
T1 construct: expressed in transfected cells; host or cells: HEK293
T1 sequence (Q09470 whole entry): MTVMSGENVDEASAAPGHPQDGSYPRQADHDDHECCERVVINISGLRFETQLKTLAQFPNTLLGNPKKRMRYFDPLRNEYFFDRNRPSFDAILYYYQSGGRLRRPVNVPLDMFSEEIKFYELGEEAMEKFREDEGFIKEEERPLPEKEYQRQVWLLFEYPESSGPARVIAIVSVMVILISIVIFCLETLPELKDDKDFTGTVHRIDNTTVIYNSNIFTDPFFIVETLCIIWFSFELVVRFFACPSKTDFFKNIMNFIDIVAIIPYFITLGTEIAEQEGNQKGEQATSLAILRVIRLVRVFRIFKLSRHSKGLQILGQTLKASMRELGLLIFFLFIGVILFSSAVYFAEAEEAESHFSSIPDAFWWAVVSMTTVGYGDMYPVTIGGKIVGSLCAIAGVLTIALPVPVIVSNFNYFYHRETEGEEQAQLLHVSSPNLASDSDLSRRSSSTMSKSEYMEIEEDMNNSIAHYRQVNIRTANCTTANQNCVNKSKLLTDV

[2] = test system: AT-EAE model of multiple sclerosis; set-up: species or system Lewis rats; conditions: rat, in vivo, sc
[3] = test system: IL-2R on T cells in human whole blood; assay type: cell-based
[4] = test system: IL-2 production in human whole blood; assay type: cell-based
[5] = test system: IFNγ production from human PBMCs; assay type: cell-based
[6] = test system: CD40L on T cells in human whole blood; assay type: cell-based
[7] = test system: IFN-g production in human whole blood; assay type: cell-based
[8] = rat, in vivo, iv, 1 mg/kg
[9] = test system: IFNγ production from human PBMCs; assay type: cell-based; remark: listed apart in the source

Structure (SMILES) | IC50 [1] | average body weight lost [2] | disease severity and survival (in words) [2] | onset of disease [2] | thapsigargin-induced upregulation of the IL-2R on T cells in human whole blood (in words) [3] | thapsigargin-induced IL-2 production in human whole blood (in words) [4] | extent of inhibition of IFNγ production [5] | thapsigargin-induced upregulation of CD40L on T cells in human whole blood (in words) [6] | thapsigargin-induced IFN-g production in human whole blood (in words) [7] | time of significant suppression of Kv1.3 current (<70 POC) by 5% serum Test solutions [8] | extent of inhibition of IFNg production [9]
CC[C@H](C)[C@@H]1NC(=O)[C@H](Cc2cccc3ccccc23)NC(=O)[C@@H](NC(=O)[C@H](CCCCN)NC(=O)[C@@H](NC(=O)[C@H](CC(N)=O)NC(=O)[C@@H](NC(=O)[C@@H](NC(=O)[C@@H](NC(=O)CN)C(C)C)[C@@H](C)CC)[C@@H](C)CC)C(C)C)CSSC[C@@H]2NC(=O)[C@H](CCCCN)NC(=O)CNC(=O)[C@H](Cc3ccccc3)NC(=O)[C@H](CCCNC(=N)N)NC(=O)[C@H](CCSC)NC(=O)CNC(=O)[C@H](C)NC(=O)[C@H](CCCCN)NC(=O)[C@H](CCCCN)NC(=O)[C@@H]3CSSC[C@@H](C(=O)N[C@H](C(=O)N4CCC[C@H]4C(=O)N[C@@H](CCCCN)C(=O)O)[C@@H](C)O)NC(=O)[C@H](Cc4c[nH]cn4)NC(=O)[C@H](CSSC[C@H](NC(=O)[C@H](CCC(N)=O)NC(=O)[C@H](CCCNC(=N)N)NC(=O)[C@H](CO)NC1=O)C(=O)N[C@@H](CC(C)C)C(=O)N[C@@H](CCC(=O)O)C(=O)N1CCC[C@H]1C(=O)N3)NC(=O)[C@H](CCCCN)NC(=O)CNC(=O)[C@H](CC(N)=O)NC(=O)[C@H](CCSC)NC2=O [K9Nal] (H-GVIINVKC[1Nal]ISRQCLEPCKKAGMRFGKCMNGKCHCTPK-OH; disulfide 8-28, 14-33, 18-35) | 0.292 nM | – | – | – | – | – | – | – | – | – | –
CC[C@H](C)[C@@H]1NC(=O)[C@@H](NC(=O)[C@H](CO)NC(=O)[C@@H](N)CCCNC(=N)N)CSSC[C@@H](C(=O)O)NC(=O)[C@H]([C@@H](C)O)NC(=O)CNC(=O)[C@@H]2CSSC[C@@H]3NC(=O)[C@H](CCC(N)=O)NC(=O)[C@H](Cc4ccccc4)NC(=O)[C@H](C)NC(=O)[C@H]([C@@H](C)O)NC(=O)[C@H](CSSC[C@H](NC(=O)[C@H](Cc4ccccc4)NC(=O)[C@H](CO)NC(=O)[C@H](CC(C)C)NC(=O)[C@H](CCCNC(=N)N)NC(=O)[C@H](Cc4ccc(O)cc4)NC(=O)[C@H](CCCCN)NC(=O)[C@H](CCSC)NC(=O)[C@H](CO)NC(=O)[C@H](Cc4cnc[nH]4)NC(=O)[C@H](CCCCN)NC3=O)C(=O)N[C@@H](CCCNC(=N)N)C(=O)N[C@@H](CCCCN)C(=O)N[C@@H]([C@@H](C)O)C(=O)N2)NC(=O)[C@H](CCCNC(=N)N)NC(=O)[C@H](CO)NC(=O)[C@H](CCCCN)NC(=O)[C@@H]2CCCN2C(=O)[C@H]([C@@H](C)CC)NC(=O)[C@H]([C@@H](C)O)NC(=O)[C@H](CC(=O)O)NC1=O [ShK] | – | 30 g | developed severe disease and died | 4 days | suppressed | suppressed | partial inhibition | suppressed | suppressed | ≤ 1 h | only partial inhibition
